Measurements: paper PMC6566077 (Chemical Science, 2019)
In brackets after ≈: the same amount, converted by molar mass. Like-named read-outs stand apart in the source and are kept apart here.

How the values were obtained:
[1] = assay type: binding; details: for BLI binding to boronic acid functionalised sensor: components 0-100 µg/mL; for Kd: BLI, steady-state model, boronic acid functionalised sensor
Mycobacterium smegmatis = test: microbe, parasite or virus in culture; assay type: cell-based, Mycobacterium smegmatis MC2155; details: for MIC: Mycolicibacterium smegmatis, read-out: MIC Mycobacteria, Mycobacterium smegmatis
Escherichia coli = test: microbe, parasite or virus in culture; assay type: cell-based, Escherichia coli (Top 10)
Haemolysis assay = assay type: cell-based; details: sheep, ovine red blood cells, versus 100% lysis with lysis buffer
Protocol: (§1) Following incubation for 24 hours at
(§2) at 570 nm (BioTek Synergy HT microplate reader). All assays were undertaken with 3 independent experimental
(§3) Two-fold serial dilutions were then carried out diluting
(§4) 100 μL of ovine blood was
(§5) HT Microplate Reader). […] All assays
(§6) were undertaken with 3 independent experimental repeats.
(§7) DMSO compounds for compounds 3, 6 and 8.
(§8) Following addition of the
(§9) red colouring across whole well = agglutination). All assays were undertaken with three independent experimental

Pseudomonas putida = test: microbe, parasite or virus in culture; assay type: cell-based
Mycobacterium bovis BCG = test: microbe, parasite or virus in culture; assay type: cell-based; details: for MIC: Mycobacterium tuberculosis variant bovis BCG, BCG, read-out: MIC Mycobacteria, Mycobacterium bovis BCG
A549 cells [2] = test: Cytotoxicity assay (resazurin, 24 h); details: 24 h exposure, viability by resazurin
[3] = tested on: Mycobacterium tuberculosis; test: microbe, parasite or virus in culture; assay type: cell-based, Mycobacterium tuberculosis H37Rv
A549 cells [4] = tested on: A549 cells
ovine red blood cells = test: Haemolysis assay; assay type: cell-based; details: 1 hour, tested at 12.5 mM due to solubility issues
Protocol: as §1, §2, §3, §4, §5, §6, §7, §8, §9

[5] = tested on: Mycobacterium tuberculosis H37Rv; test: Minimum bactericidal concentration (MBC), CFU plating; assay type: cell-based; details: actively growing M. tuberculosis H37Rv, lowest concentration with no CFUs
Jurkat E6.1 cells = test: Cytotoxicity assay (resazurin, 24 h); assay type: cell-based, human; details: 24 h exposure, viability by resazurin
Caco-2 cells = test: Cytotoxicity assay (resazurin, 24 h); assay type: cell-based, human; details: 24 h exposure, viability by resazurin
M. tuberculosis H37Rv [6] = assay type: cell-based, Mycobacterium tuberculosis H37Rv; details: for Outcome, interaction profile with Meropenem / ΣFIC, interaction profile with Meropenem: M. tuberculosis H37Rv, checkerboard; for Interaction with meropenem in checkerboard assay (words, Figure S7): representative checkerboard images
M. tuberculosis H37Rv [7] = assay type: cell-based, Mycobacterium tuberculosis H37Rv; details: checkerboard
[8] = tested on: ConA mediated agglutination of ovine blood; assay type: cell-based
[9] = Escherichia coli; read-out: MIC Gram-negative, Escherichia coli
[10] = Pseudomonas putida; read-out: MIC Gram-negative, Pseudomonas putida
[11] = Mycobacterium tuberculosis; read-out: MIC Mycobacteria, Mycobacterium tuberculosis
[12] = Mycobacterium tuberculosis; M. tuberculosis H37Rv, compound alone, REMA checkerboard (Table S3); read-out: MIC

Phosphatidylinositol Mannoside 6 [PIM6]
BLI binding to boronic acid functionalised sensor [1]: weak binding affinity

O=C(O)c1cccc(B(O)O)c1 [Compound 2, reference compound]
MIC (Mycobacterium smegmatis): 12.5 to 25 mM (≈ 2070 to 4150 µg/mL)
MIC (Escherichia coli; [9]): > 25 mM
hemolysis at 1 h (Haemolysis assay): 4.5%
MIC (Pseudomonas putida; [10]): 12.5 to 25 mM (≈ 2070 to 4150 µg/mL)
MIC (Mycobacterium bovis BCG): 12.5 mM (≈ 2070 µg/mL)
A549 (MIC99) (A549 cells [2]): > 25 mM
MIC [3, 11]: 6.25 to 12.5 mM (≈ 1040 to 2070 µg/mL)

Trehalose Monomycolate [TMM]
Kd ([1]; read-out: Kd): 12 µM
BLI binding to boronic acid functionalised sensor [1]: interacted strongly

O=C(CCN(CCOCCOCCN(CCC(=O)NCCOCCOCCNC(=O)c1cccc(B(O)O)c1)CCC(=O)NCCOCCOCCNC(=O)c1cccc(B(O)O)c1)CCC(=O)NCCOCCOCCNC(=O)c1cccc(B(O)O)c1)NCCOCCOCCNC(=O)c1cccc(B(O)O)c1 [Compound 8, 2,2’-(Ethylenedioxy)bis(ethylamine) G1 PAMAM tetra(3-phenylboronic acid)amide dendrimer]
A549 (MIC99) (A549 cells [4]): > 25 mM
MIC Mycobacteria, Mycobacterium smegmatis (Mycobacterium smegmatis): 0.78 mM (≈ 1210 µg/mL)
MIC Gram-negative, Escherichia coli (Escherichia coli): >25 mM
Haemolysis (%) (ovine red blood cells): 4.5%
MIC Gram-negative, Pseudomonas putida (Pseudomonas putida): >25 mM
MIC Mycobacteria, Mycobacterium bovis BCG (Mycobacterium bovis BCG; resazurin reduction microtitre plate assay): 1.56 mM (≈ 2420 µg/mL)
MIC Mycobacteria, Mycobacterium tuberculosis [3]: 0.78 to 1.56 mM
MIC against Mtb [3]: 0.78 mM (≈ 1210 µg/mL)

mycolic acid methyl esters [MAMEs]
BLI binding to boronic acid functionalised sensor [1]: no detectable binding

O=C(NCCNC(=O)c1cccc(B(O)O)c1)c1cccc(B(O)O)c1 [Compound 4, N,N'-(ethylenediamine)bis(3-phenylboronic acid)amide]
MBC [5]: 6.25 mM (≈ 2220 µg/mL)
MIC (Mycobacterium smegmatis): 3.13 mM (≈ 1110 µg/mL)
Jurkat (MIC99) (Jurkat E6.1 cells): 12.5 mM
MIC (Escherichia coli; [9]): > 25 mM
Caco-2 (MIC99) (Caco-2 cells): 50 mM
Outcome, interaction profile with Meropenem (M. tuberculosis H37Rv [6]): Additive (values in between correspond to additivity)
ΣFIC, interaction profile with Meropenem (M. tuberculosis H37Rv [6]): 1
Outcome, interaction profile with Rifampicin (M. tuberculosis H37Rv [7]): Additive (values in between correspond to additivity)
ΣFIC, interaction profile with Rifampicin (M. tuberculosis H37Rv [7]): 2
hemolysis at 1 h (Haemolysis assay): 0%
MIC (Pseudomonas putida; [10]): > 25 mM
MIC (Mycobacterium bovis BCG): 0.78 mM (≈ 278 µg/mL)
A549 (MIC99) (A549 cells [2]): 25 mM
ConA agglutination [8]: No inhibition
MIC [3, 12]: 3.13 mM
MIC [3, 11]: 1.56 to 3.13 mM (≈ 555 to 1110 µg/mL)

O=C(NCCCOCCOCCOCCCNC(=O)c1cccc(B(O)O)c1)c1cccc(B(O)O)c1 [Compound 6, N,N'-(4,7,10-trioxa-1,13-tridecanediamine)bis(3-phenylboronic acid)amide]
MBC [5]: 6.25 mM (≈ 3230 µg/mL)
MIC (Mycobacterium smegmatis): 3.13 mM (≈ 1620 µg/mL)
Jurkat (MIC99) (Jurkat E6.1 cells): 25 mM
MIC (Escherichia coli; [9]): > 25 mM
Caco-2 (MIC99) (Caco-2 cells): 25 mM
Outcome, interaction profile with Meropenem (M. tuberculosis H37Rv [6]): Additive (values in between correspond to additivity)
ΣFIC, interaction profile with Meropenem (M. tuberculosis H37Rv [6]): 0.625
Interaction with meropenem in checkerboard assay (words, Figure S7) (M. tuberculosis H37Rv [6]): additivity
Outcome, interaction profile with Rifampicin (M. tuberculosis H37Rv [7]): Additive (values in between correspond to additivity)
ΣFIC, interaction profile with Rifampicin (M. tuberculosis H37Rv [7]): 2
hemolysis at 1 h (Haemolysis assay): 0%
MIC (Pseudomonas putida; [10]): > 25 mM
MIC (Mycobacterium bovis BCG): 0.78 to 1.56 mM (≈ 403 to 805 µg/mL)
A549 (MIC99) (A549 cells [2]): 25 mM
ConA agglutination [8]: No inhibition
MIC [3, 12]: 1.56 mM
MIC [3, 11]: 1.56 to 3.13 mM (≈ 805 to 1620 µg/mL)

dextran [reference compound]
BLI binding to boronic acid functionalised sensor [1]: no binding was observed

O=C(NCCOCCOCCOCCOCCOCCOCCOCCOCCOCCOCCOCCOCCOCCOCCOCCOCCOCCOCCOCCOCCOCCOCCOCCNC(=O)c1cccc(B(O)O)c1)c1cccc(B(O)O)c1 [Compound 7, N,N'-(polyoxyethylenebis(amine))bis(3-phenylboronic acid)amide]
MIC (Mycobacterium smegmatis): 25 mM (≈ 34200 µg/mL)
MIC (Escherichia coli; [9]): > 25 mM
MIC (Pseudomonas putida; [10]): > 25 mM
MIC (Mycobacterium bovis BCG): > 25 mM

Lipoarabinomannan [LAM]
Kd [1]: 41.5 μg mL^–1
BLI binding to boronic acid functionalised sensor [1]: interacted strongly

CC1(C)[C@H](C(=O)O)N2C(=O)C[C@H]2S1(=O)=O [Sulbactam, reference compound]
Outcome, interaction profile with Meropenem (M. tuberculosis H37Rv [6]): Synergistic (ΣFICs of ≤0.5 designate synergistic activity)
ΣFIC, interaction profile with Meropenem (M. tuberculosis H37Rv [6]): 0.313
ΣFIC, interaction profile with Meropenem (M. tuberculosis H37Rv [6]; listed as sulbactam): 0.3
Interaction with meropenem in checkerboard assay (words, Figure S7) (M. tuberculosis H37Rv [6]): synergistic activity
MIC [3, 12]: 0.134 mM

Phosphatidylinositol Mannosides 1 & 2 [PIM 1 + 2]
BLI binding to boronic acid functionalised sensor [1]: very weak binding

Galactan [reference compound]
BLI binding to boronic acid functionalised sensor [1]: no binding was observed

monosialodihexosylganglioside [GM3, reference compound]
BLI binding to boronic acid functionalised sensor [1]: no detectable binding

lipopolysaccharide [LPS, reference compound]
BLI binding to boronic acid functionalised sensor [1]: weak binding

Lipomannan [LM]
BLI binding to boronic acid functionalised sensor [1]: interacted strongly

Trehalose Dimycolate [TDM]
Kd ([1]; read-out: Kd): 4 µM
BLI binding to boronic acid functionalised sensor [1]: interacted strongly

OB(O)c1ccccc1 [Compound 1, reference compound]
MIC (Mycobacterium smegmatis): 12.5 to 25 mM (≈ 1520 to 3050 µg/mL)
MIC (Escherichia coli; [9]): 25 mM (≈ 3050 µg/mL)
hemolysis at 1 h (Haemolysis assay): 0%
MIC (Pseudomonas putida; [10]): 12.5 to 25 mM (≈ 1520 to 3050 µg/mL)
MIC (Mycobacterium bovis BCG): 3.13 mM (≈ 382 µg/mL)
A549 (MIC99) (A549 cells [2]): 50 mM
MIC [3, 11]: 6.25 to 12.5 mM (≈ 762 to 1520 µg/mL)

O=C(NCCOCCOCCNC(=O)c1cccc(B(O)O)c1)c1cccc(B(O)O)c1 [Compound 5, N,N'-(2,2-(ethylenedioxy)bis(ethylamine))bis(3-phenylboronic acid)amide]
MBC [5]: 6.25 mM (≈ 2780 µg/mL)
MIC (Mycobacterium smegmatis): 3.13 mM (≈ 1390 µg/mL)
Jurkat (MIC99) (Jurkat E6.1 cells): 12.5 mM
MIC (Escherichia coli; [9]): > 25 mM
Caco-2 (MIC99) (Caco-2 cells): 50 mM
Outcome, interaction profile with Meropenem (M. tuberculosis H37Rv [6]): Additive (values in between correspond to additivity)
ΣFIC, interaction profile with Meropenem (M. tuberculosis H37Rv [6]): 0.625
Outcome, interaction profile with Rifampicin (M. tuberculosis H37Rv [7]): Additive (values in between correspond to additivity)
ΣFIC, interaction profile with Rifampicin (M. tuberculosis H37Rv [7]): 2
hemolysis at 1 h (Haemolysis assay): 0%
MIC (Pseudomonas putida; [10]): > 25 mM
MIC (Mycobacterium bovis BCG): 0.78 to 1.56 mM (≈ 346 to 693 µg/mL)
A549 (MIC99) (A549 cells [2]): 25 mM
ConA agglutination [8]: No inhibition
MIC [3, 12]: 3.13 mM
MIC [3, 11]: 1.56 to 3.13 mM (≈ 693 to 1390 µg/mL)

O=C(O)c1ccc(B(O)O)cc1 [Compound 3, reference compound]
MIC (Mycobacterium smegmatis): 25 mM (≈ 4150 µg/mL)
MIC (Escherichia coli; Escherichia coli, read-out: MIC Gram-negative, Escherichia coli): > 25 mM
hemolysis at 1 h (Haemolysis assay): 0.9%
MIC (Pseudomonas putida; Pseudomonas putida, read-out: MIC Gram-negative, Pseudomonas putida): 25 mM (≈ 4150 µg/mL)
MIC (Mycobacterium bovis BCG): 6.25 mM (≈ 1040 µg/mL)
A549 (MIC99) (A549 cells [2]): > 25 mM
MIC ([3]; Mycobacterium tuberculosis, read-out: MIC Mycobacteria, Mycobacterium tuberculosis): 6.25 mM (≈ 1040 µg/mL)
